Assay results reported in PMC12567082, “Silver(I) Complexes Bearing S-Alkyl Thiosalicylic Acid Derivatives: DNA/BSA Binding and Antitumor Activity In Vitro and In Vivo” (Pharmaceutics, 2025).

Columns and labels:
[1] = tested on: 4T1 cells; test: Mitochondrial membrane potential and ROS levels; type: cell-based, mouse; conditions: 0.5 µM
Method: After 24 h of C3 treatment, 4T1 cells were stained with appropriate dyes, followed by flow cytometry analysis using FACS Calibur Flow Cytometer (BD Biosciences, San Jose, CA, USA). Mitochondrial membrane potential stained by Rhodamine-123 (Sigma-Aldrich, St. Louis, MO, USA), TMRE (Abcam, Cambridge, UK), and cellular ROS levels were stained by DC-FHDA (Sigma-Aldrich, St. Louis, MO, USA).

[2] = tested on: BALB/C female mice; test: In vivo toxicity (serum biochemistry, liver and kidney histology); conditions: day 30
Method: Ethics Committee of the Faculty of Medical Sciences of the University of Kragujevac, Serbia, approved all experiments (01-5301/11). ARRIVE guidelines and EU Directive 2010/63/EU for animal experiments were followed. Experimental animals, BALB/C female mice (8–10 weeks old), were housed under standard conditions (temperature-controlled environment, a 12 h light–dark cycle, fed ad libitum, and observed daily) throughout whole duration of experiment. Animals were inoculated with 4T1 cells (3 × 10^4) into the fourth mammary fat pad as previously described. Animals were randomly assigned to experimental or control groups, and after palpable tumors were detected, the pharmacological treatments were started. Female BALB/C mice intraperitoneally received either C3 (3 mg/kg), C3 (6 mg/kg), CDDP (6 mg/kg), or vehicle in distilled water with 0.05% DMSO (Sigma-Aldrich, St. Louis, MO, USA) (untreated group) in five single doses every third day (8 animals per group). Using electronic calipers (Moore and Wright, Sheffield, UK), the sizes of primary 4T1 mammary tumors were morphometrically evaluated. On the 30th day of experiment, animals were sacrificed, blood was collected (for determination of serum levels of ALT, AST, urea, and creatinine), and tissue sections (liver and kidney) were stained with H&E for further analysis. Liver or kidney sections were analyzed by two observers, and the injury levels were determined as previously reported.

[3] = tested on: 4T1 cells; test: Cell cycle distribution; type: cell-based, mouse; conditions: 0.5 µM, 24 h
Method: After reaching optimal confluency, 4T1 cells were allowed to grow in the presence of 0.5 µM of C3 or DMEM only (control 4T1 cells) for next 24 h. According to manufacturer’s recommendation, cells were stained with Vybrant® DyeCycle^TM Ruby stain (Thermo Fisher Scientific, Waltham, MA, USA) in order to perform cell cycle analysis. The analysis was carried out on FACSCalibur Flow Cytometer (BD Biosciences, San Jose, CA, USA), and data were analyzed using FlowJo software (version 10.7.2; Tree Star Inc. Ashland, OR, USA).

[4] = tested on: 4T1 cells; test: Analysis of cell death (Annexin V/PI) in 4T1; type: cell-based, mouse; conditions: 0.5 µM, 24 h, vs untreated
Method: 4T1 cells were treated with 0.5 µM of C3 or grown in DMEM only (control 4T1 cells) for 24 h and stained with Annexin-V-FITC and propidium iodide (PI) (BD Pharmingen, San Diego, CA, USA) as previously described. Quantification of cellular death was measured using FACSCalibur Flow Cytometer (BD Biosciences, San Jose, CA, USA) and FlowJo software (version 10.7.2; Tree Star Inc. Ashland, OR, USA).

[5] = tested on: human lung cancer (A549); test: MTT assay A549; type: cell-based
Method: (§1) Mouse breast cancer (4T1), human breast cancer (MDA-MB-468), mouse colon cancer (CT26), human colon cancer (HCT-116), mouse lung cancer (LLC1), human lung cancer (A549), mouse mesenchymal stem cells (mMSC), and human fibroblast cell lines (MRC-5) were used in this study and were consistently cultured in complete Dulbecco’s Modified Eagle Medium (DMEM) (Sigma-Aldrich, St. Louis, MO, USA) in incubator (5% CO2) under standard conditions. Complete DMEM was Dulbecco’s Modified Eagle Medium supplemented with 10% fetal bovine serum (FBS), 1 mmol/L penicillin–streptomycin, 1 mmol/L mixed nonessential amino acids, and 2 mmol/L L-glutamine (Sigma-Aldrich, St. Louis, MO, USA). All cancer cell lines and MRC-5 cell line were obtained from American Type Culture Collection (ATCC, Manassas, VA, USA), but mMSC was manufactured by Gibco (Middlesex County, MA, USA).
(§2) In 96-well microplates, we seeded cancer and non-cancer cells, more exactly 5 × 10^3 cells per well in 100 μL of complete DMEM (Sigma-Aldrich, St. Louis, MO, USA). […] Tested concentration range for all metal-based substances was 3.9–500 μM. After incubation with MTT solution (5 mg/mL; pH 7.2) for 4 h, optical density was determined using Zenyth 3100 microplate multimode detector (Salzburg, Austria). All experiments were performed three times, each in triplicate, and the IC50 values as well as selectivity indexes (IC50 for mMSC or MRC-5/IC50 for mouse or human cancer cells) were calculated.

[6] = tested on: mouse lung cancer (LLC1); test: MTT assay LLC1; type: cell-based
Method: as §1, §2

[7] = tested on: 4T1 cells; test: Flow cytometry of apoptosis and proliferation markers; type: cell-based, mouse; conditions: 0.5 µM, 24 h, vs untreated
Method: Flow cytometry was performed on 4T1 cells treated with 0.5 µM of C3 for 24 h or untreated cells. After treatment, cells were incubated with antibodies specific for Bax (Abcam Cambridge, Cambridge, UK), Bcl-2 (Abcam Cambridge, UK), BclXL (Thermo Fisher Scientific, Waltham, MA, USA), MCL-1 (Thermo Fisher Scientific, Waltham, MA, USA) caspase 3 (Abcam Cambridge, UK), Ki-67 (eBioscience, San Diego, CA, USA), cyclin D3 (Abcam Cambridge, UK), p21 (Abcam Cambridge, UK), p16 (Abcam Cambridge, UK), and p27 (Abcam Cambridge, UK) and secondary antibodies as previously described. FACSCalibur Flow Cytometer (BD Biosciences, San Jose, CA, USA) was used for flow cytometry, and the data were analyzed using FlowJo (version 10.7.2; Tree Star Inc. Ashland, OR, USA).

**Q.** What does the source list for `CCCSc1ccccc1C(=O)[O][Ag].CCCSc1ccccc1C(=O)[O][Ag]` [C3, [Ag2(S-propyl-thiosal)2]]?
**A.** TMRE fluorescence (mitochondrial membrane potential) [1]: significant decrease; level of intracellular ROS ([1]; 24 h incubation): increased; kidney injury scores compared to CDDP-treated animals ([2]; C3 3 and 6 mg/kg vs CDDP 6 mg/kg): significantly lower; liver injury histological score (Knodel score) vs untreated animals ([2]; C3 3 and 6 mg/kg, H&E): did not reveal a significant difference; percentage of 4T1 cells in G0/G1 phase [3]: significantly increased; percentage of 4T1 cells in S phase [3]: decreased; percentage of early apoptotic cells [4]: No difference; percentage of late apoptotic 4T1 cells (AnnV+/PI+) [4]: increased; IC50 ([5]; A549, 24 h): 55.8 ± 1.83 µM; Selectivity Index (IC50 mMSC or MRC-5/ IC50 Cancer Cell) ([5]; A549, 24 h): 0.68; IC50 ([5]; A549, 48 h): 66.3 ± 1.18 µM; Selectivity Index (IC50 mMSC or MRC-5/ IC50 Cancer Cell) ([5]; A549, 48 h): 0.65; IC50 ([6]; LLC1, 24 h): 41.6 ± 1.27 µM; IC50 ([6]; LLC1, 48 h): 20.3 ± 1.18 µM; Selectivity Index (IC50 mMSC or MRC-5/ IC50 Cancer Cell) ([6]; LLC1, 48 h): 0.21; Bax/Bcl-2 ratio [7]: higher
